Columns and labels:
isolated pig islets = assay: Glucose-induced insulin secretion from isolated pig islets, static incubation with pharmacological PKC/PKA activators; type: cell-based; settings: 2 h, PMA 20 nM and/or forskolin 1 μM
Method: FIG. 1 is a histogram showing the insulin secretion from adult and neonate isolated pig islets. […] Insulin secretion was measured in the incubation media and expressed as a percentage of total insulin content of each batch of islets. The numbers above the columns represent the fold increase of insulin secretion in test groups compared to 15 mM glucose alone. * p<0.05. […] Finally, insulin was quantified in recovered media and in incubated islets by radioimmuno-assay.

MIN6 cells = assay: Glucose-induced insulin secretion from transfected MIN6 cells, static incubation; type: cell-based, murine; settings: MIN6 cells 48 h after plasmid transfection; 2 h in 1 or 15 mM glucose; control cells 2.2
Method: FIG. 2 is a histogram showing glucose-induced insulin secretion from transfected Min6 cells incubated with 1 (G1) or 15 mM (G15) glucose. The numbers above pairs of columns represent the stimulation ratio (G15/G1) in each group. * p<0.05 indicates significant difference between test groups and controls. Values are means±SEM for n=15-21 from 7 different experiments.
To verify the effect of the transgenic proteins on insulin secretion, transfected and control MIN6 cells were challenged by an increase of glucose concentration during static incubation experiments. Insulin secretion was measured and the stimulation index i.e., the ratio between insulin secretion at high glucose and insulin secretion at low glucose, of transgenic and control cells was calculated. In brief, 2·10^5 cells were seeded in 12-well plates and cultivated for 48 h before they were transfected with one the plasmids carrying the GLP-1 (7-37) gene (GLP-1), the mutated GLP-1 (7-A8S-37) gene (GLP-1 Ser8) or the constitutively activated muscarinic receptor gene (M3). Control cells were simply exposed to Lipofectamine without any plasmidic DNA. 48 h after transfection, cells were starved then incubated for 2 h in a 1 mL Krebs-Ringer buffer containing either 1 or 15 mM glucose. Insulin secretion was measured in the incubation media and expressed as a percentage of total insulin content of the cells.

adult pig islets = assay: Dynamic islet perifusion, glucose-induced insulin secretion of virus-treated adult pig islets; type: cell-based; settings: adenoviral vector MOI 200, 48 h, perifused G1 then 30 min G15
Method: FIG. 4 is a graph showing the insulin secretion of isolated adult pig islets exposed to 200 MOI viral expression vectors carrying sequences coding for GLP-1 (GLP-1 Ser8), activated muscarinic receptor (M3R) or both (GLP-1+M3R) during 48 hours. Batches of 600 islets were perifused in krebs medium containing 1 mM glucose (G1) then 15 mM glucose (G15) as indicated on top of the figure. Insulin secretion was then measured in the effluent fractions. Values are means±SEM for n=3-4 from 4 different preparations.
The effect of transgenic PKA and PKC activation on glucose-induced insulin secretion was also tested during dynamic islet perifusion experiments. Control and virus-treated adult islets were placed in perifusion chambers sealed with 0.2 μm filters. Islets were first perifused with 1 mM glucose (G1) krebs medium during 30 minutes for equilibrium then during 10 minutes in G1 with media collection every 2 minutes followed by 30 minutes stimulation with G15.

| Molecule | fold increase of insulin secretion compared to 15 mM glucose alone (isolated pig islets; islets from adult pigs) [fold] | fold increase of insulin secretion compared to 15 mM glucose alone (isolated pig islets; islets from neonate pigs) | stimulation index (insulin secretion G15/G1) (MIN6 cells) | effect on acute glucose-induced insulin secretion during perifusion, in words (adult pig islets) |
| --- | --- | --- | --- | --- |
| CCCCCCCCCCCCCC(=O)O[C@@H]1[C@@H](C)[C@@]2(O)[C@@H](C=C(CO)C[C@]3(O)C(=O)C(C)=C[C@@H]23)[C@@H]2C(C)(C)[C@]12OC(C)=O [PMA, phorbol myristate acetate] | 2 | up to 8 fold | – | – |
| GLP-1 | – | – | 2.6 | virtually no effect |
